We go through 28 substances from patent US8969516B2, “Method of hydrolysis of peptide bond” (priority 2006, dated 2015).

This data set in a line: MALDI-TOF screening of Ni^2+ dependent hydrolysis in a combinatorial peptide library. The data set is classed as physicochemical. The following applies: Ni^2+ 2 mM, pH 8.2, 10 mM Tris, score=24/tm. The essentials:
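MALDI-TOF spectra taken at 2, 4, 6 and 8 h tracked the appearance of Ser/Thr-X-His-Z-Lys-Phe-Leu-NH2 cleavage products and the fall in substrate signals. Reactions: 1 mM peptide mixture, 2 mM Ni^2+, 10 mM Tris pH 8.2, at 37 or 45 °C; X/Z substitutions ranked by summed scores.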

Where [1] appears, read: CH3CO-Gly-Ala-Ser-X-His-Z-Lys-Phe-Leu-NH2 library, 37° C.
Where [2] appears, read: CH3CO-Gly-Ala-Ser-X-His-Z-Lys-Phe-Leu-NH2 library, 45° C.
Where [3] appears, read: CH3CO-Gly-Ala-Thr-X-His-Z-Lys-Phe-Leu-NH2 library, 37° C.
Where [4] appears, read: CH3CO-Gly-Ala-Thr-X-His-Z-Lys-Phe-Leu-NH2 library, 45° C.

As to Ac-GASQHRKFL-NH2 [SQHR], the “hydrolysis score from MALDI-TOF screening” value (“hydrolysis score” for short) is 6 (a score of 6 for detection at 4 hours) under setting [1] and 6 (a score of 6 for detection at 4 hours) under setting [2].
For the substance Ac-GASTHVKFL-NH2 [STHV], the “hydrolysis score” value under setting [1] is reported as 0 (a score of 0 if no trace of the product of hydrolysis was seen after 8 hours of incubation) and the “hydrolysis score” value under setting [2] is 6 (a score of 6 for detection at 4 hours).
For Ac-GASKHPKFL-NH2 [SKHP], in that order: 0 (a score of 0 if no trace of the product of hydrolysis was seen after 8 hours of incubation) and 0 (a score of 0 if no trace of the product of hydrolysis was seen after 8 hours of incubation).
For Ac-GASWHMKFL-NH2 [SWHM], in that order: 0 (a score of 0 if no trace of the product of hydrolysis was seen after 8 hours of incubation) and 3 (a score of 3 for detection at 8 hours).
In the case of Ac-GASGHSKFL-NH2 [SGHS], the “hydrolysis score” value under setting [1] is given as 0 (a score of 0 if no trace of the product of hydrolysis was seen after 8 hours of incubation) and the “hydrolysis score” value under setting [2] is given as 0 (a score of 0 if no trace of the product of hydrolysis was seen after 8 hours of incubation).
Take Ac-GASTHIKFL-NH2 [STHI]: the “hydrolysis score” value was 4 (a score of 4 for detection at 6 hours) under setting [1] and 6 (a score of 6 for detection at 4 hours) under setting [2].
As for Ac-GASGHWKFL-NH2 [SGHW], the “hydrolysis score” value reads like this: under setting [1], 3 (a score of 3 for detection at 8 hours); under setting [2], 4 (a score of 4 for detection at 6 hours).
For Ac-GATMHHKFL-NH2 [TMHH], the “hydrolysis score” value reads like this: under setting [3], 0 (a score of 0 if no trace of the product of hydrolysis was seen after 8 hours of incubation); under setting [4], 0 (a score of 0 if no trace of the product of hydrolysis was seen after 8 hours of incubation).
For Ac-GATAHDKFL-NH2 [TAHD], the “hydrolysis score” value was 0 (a score of 0 if no trace of the product of hydrolysis was seen after 8 hours of incubation) under setting [3] and 0 (a score of 0 if no trace of the product of hydrolysis was seen after 8 hours of incubation) under setting [4].
As for Ac-GATIHQKFL-NH2 [TIHQ], the “hydrolysis score” value is, setting by setting: under setting [3], 0 (a score of 0 if no trace of the product of hydrolysis was seen after 8 hours of incubation); under setting [4], 0 (a score of 0 if no trace of the product of hydrolysis was seen after 8 hours of incubation).
As for Ac-GASQHGKFL-NH2 [SQHG], the “hydrolysis score” value is on record as 0 (a score of 0 if no trace of the product of hydrolysis was seen after 8 hours of incubation) under setting [1] and 0 (a score of 0 if no trace of the product of hydrolysis was seen after 8 hours of incubation) under setting [2].
For the substance Ac-GASMHYKFL-NH2 [SMHY], the “hydrolysis score” value was 3 (a score of 3 for detection at 8 hours) under setting [1] and 4 (a score of 4 for detection at 6 hours) under setting [2].
Turning to Ac-GATSHDKFL-NH2 [TSHD], the “hydrolysis score” value is given as 0 (a score of 0 if no trace of the product of hydrolysis was seen after 8 hours of incubation) under setting [3] and 0 (a score of 0 if no trace of the product of hydrolysis was seen after 8 hours of incubation) under setting [4].
With Ac-GATVHIKFL-NH2 [TVHI], the “hydrolysis score” value is 0 (a score of 0 if no trace of the product of hydrolysis was seen after 8 hours of incubation) under setting [3] and 0 (a score of 0 if no trace of the product of hydrolysis was seen after 8 hours of incubation) under setting [4].
Ac-GASTHRKFL-NH2 [STHR]: the “hydrolysis score” value is listed as 3 (a score of 3 for detection at 8 hours) under setting [1] and 6 (a score of 6 for detection at 4 hours) under setting [2].
Regarding Ac-GATQHKKFL-NH2 [TQHK], the “hydrolysis score” value is reported as 0 (a score of 0 if no trace of the product of hydrolysis was seen after 8 hours of incubation) under setting [3] and 3 (a score of 3 for detection at 8 hours) under setting [4].
On to Ac-GATGHNKFL-NH2 [TGHN], for which the “hydrolysis score” value is, setting by setting: under setting [3], 0 (a score of 0 if no trace of the product of hydrolysis was seen after 8 hours of incubation); under setting [4], 0 (a score of 0 if no trace of the product of hydrolysis was seen after 8 hours of incubation).
As to Ac-GATPHDKFL-NH2 [TPHD], the “hydrolysis score” value under setting [4] was 0 (a score of 0 if no trace of the product of hydrolysis was seen after 8 hours of incubation).
For Ac-GASHHRKFL-NH2 [SHHR], the “hydrolysis score” value was 4 (a score of 4 for detection at 6 hours) under setting [1] and 6 (a score of 6 for detection at 4 hours) under setting [2].
For Ac-GASYHNKFL-NH2 [SYHN], in that order: 0 (a score of 0 if no trace of the product of hydrolysis was seen after 8 hours of incubation) and 0 (a score of 0 if no trace of the product of hydrolysis was seen after 8 hours of incubation).
On the same counts, the results for Ac-GASPHIKFL-NH2 [SPHI] are 0 (a score of 0 if no trace of the product of hydrolysis was seen after 8 hours of incubation) and 0 (a score of 0 if no trace of the product of hydrolysis was seen after 8 hours of incubation).
Consider Ac-GATPHQKFL-NH2 [TPHQ], for which the “hydrolysis score” value under setting [4] is 0 (a score of 0 if no trace of the product of hydrolysis was seen after 8 hours of incubation).
As to Ac-GATTHKKFL-NH2 [TTHK], the “hydrolysis score” value reads like this: under setting [3], 0 (a score of 0 if no trace of the product of hydrolysis was seen after 8 hours of incubation); under setting [4], 0 (a score of 0 if no trace of the product of hydrolysis was seen after 8 hours of incubation).
For the substance Ac-GATPHSKFL-NH2 [TPHS], under setting [4], the “hydrolysis score” value was 0 (a score of 0 if no trace of the product of hydrolysis was seen after 8 hours of incubation).
In the case of Ac-GATGHRKFL-NH2 [TGHR], the “hydrolysis score” value is, setting by setting: under setting [3], 0 (a score of 0 if no trace of the product of hydrolysis was seen after 8 hours of incubation); under setting [4], 0 (a score of 0 if no trace of the product of hydrolysis was seen after 8 hours of incubation).
In the case of Ac-GATWHQKFL-NH2 [TWHQ], the “hydrolysis score” value reads like this: under setting [3], 0 (a score of 0 if no trace of the product of hydrolysis was seen after 8 hours of incubation); under setting [4], 0 (a score of 0 if no trace of the product of hydrolysis was seen after 8 hours of incubation).
As for Ac-GATHHMKFL-NH2 [THHM], the “hydrolysis score” value was 0 (a score of 0 if no trace of the product of hydrolysis was seen after 8 hours of incubation) under setting [3] and 4 (a score of 4 for detection at 6 hours) under setting [4].
As for Ac-GASPHPKFL-NH2 [SPHP], the “hydrolysis score” value under setting [1] is given as 0 (a score of 0 if no trace of the product of hydrolysis was seen after 8 hours of incubation) and the “hydrolysis score” value under setting [2] is 0 (a score of 0 if no trace of the product of hydrolysis was seen after 8 hours of incubation).
